In ChEMBL document CHEMBL1131364, “Novel modified tripeptide inhibitors of alpha 4 beta 7 mediated lymphoid cell adhesion to MAdCAM-1” (Bioorg Med Chem Lett, 1998) one finds IC50 data, which are given here for 19 compounds.

Numbered stars: 1 amine (or outer) side, 2 acyl side, 3 side chain; on linkers, the order of the positions; unused ones are H or OH. Peptide text beside a SMILES is read from it. * marks the point of attachment. CO = O=C([*:1])[*:2]; NHPh = c1ccc(N*)cc1

For orientation: IC50 means the point on the concentration scale where inhibition reaches its midpoint. A high value points to lower potency.

A short description of this experiment: In vitro inhibition of RPMI 8866 cell adhesion to human MAdCAM-1 IgG chimera. It is filed as cell-based.
Take `CC(C)C[C@H](NC(=O)c1cc2ccccc2o1)C(=O)N[C@@H](CC(=O)O)C(=O)N[C@H](C(=O)NCc1ccc(F)c(F)c1)[C@@H](C)O`: 5.2 µM corresponded to half-maximal inhibition (IC50). In other words, the single-digit micromolar range.
With `COc1ccc(CCNC(=O)[C@@H](NC(=O)[C@H](CC(=O)O)NC(=O)[C@H](CC(C)C)NC(=O)c2cc3ccccc3cn2)[C@@H](C)O)cc1` the figure was above 25 µM; with `COc1ccc(CNC(=O)[C@@H](NC(=O)[C@H](CC(=O)O)NC(=O)[C@H](CC(C)C)NC(=O)c2cc3ccccc3cn2)[C@@H](C)O)cc1`, 3 µM.
On to `CC(C)C[C@H](NC(=O)c1cc2ccccc2cn1)C(=O)N[C@@H](CC(=O)O)C(=O)N[C@H](C(=O)NCc1ccc(F)cc1)[C@@H](C)O`, for which the IC50 was found to be 5.2 µM.
In turn, `CC(C)C[C@H](NC(=O)c1coc2ccccc2c1=O)C(=O)N[C@@H](CC(=O)O)C(=O)NC(C(N)=O)C(O)c1ccccc1` (some centres undefined) came in with an IC50 of 6.4 µM.
Regarding `CC(C)C[C@H](NC(=O)c1cc2ccccc2cn1)C(=O)N[C@@H](CC(=O)O)C(=O)N[C@@H](C(N)=O)[C@@H](C)O`, half-maximal inhibition (IC50) was put at 3.9 µM.
In the case of `CC(C)C[C@H](NC(=O)c1coc2ccccc2c1=O)C(=O)N[C@@H](CC(=O)O)C(=O)N[C@H](C(N)=O)[C@@H](C)O` it was 1.3 µM; in that of `CC(C)C[C@H](NC(=O)c1ccc([N+](=O)[O-])cc1)C(=O)N[C@@H](CC(=O)O)C(=O)N[C@H](C(N)=O)[C@@H](C)O`, 9 µM.
With `CC(C)C[C@H](NC(=O)c1cc2ccccc2o1)C(=O)N[C@@H](CC(=O)O)C(=O)N[C@H](C(=O)NCc1ccc2c(c1)OCO2)[C@@H](C)O` the figure was 4.4 µM; with `COc1ccc(C(=O)N[C@@H](CC(C)C)C(=O)N[C@@H](CC(=O)O)C(=O)N[C@H](C(N)=O)[C@@H](C)O)cc1`, above 25 µM; with `CC(C)C[C@H](NC(=O)c1cc2ccccc2cn1)C(=O)N[C@@H](CC(=O)O)C(=O)N[C@H](C(N)=O)[C@@H](C)O`, 3.1 µM.
With `CC(C)C[C@H](NS(=O)(=O)c1ccccc1)C(=O)N[C@@H](CC(=O)O)C(=O)N[C@H](C(N)=O)[C@@H](C)O` the figure was above 25 µM.
In turn, `CC(C)C[C@H](NC(=O)c1cc2ccccc2o1)C(=O)N[C@@H](CC(=O)O)C(=O)N[C@H](C(N)=O)[C@@H](C)O` gave an IC50 of 2.3 µM.
With `CC(C)C[C@H](NC(=O)c1cc2ccccc2cn1)C(=O)N[C@@H](CC(=O)O)C(=O)N[C@H](C(=O)NCc1ccncc1)[C@@H](C)O` the figure was 1.1 µM; with `CC(C)C[C@H](NC(=O)/C=C/c1ccccc1)C(=O)N[C@@H](CC(=O)O)C(=O)N[C@H](C(N)=O)[C@@H](C)O`, 4.9 µM; with `CC(C)C[C@H](NC(=O)c1coc2ccccc2c1=O)C(=O)N[C@@H](CC(=O)O)C(=O)N[C@H](C(N)=O)[C@H](C)O`, 4.7 µM.
With `CC(=O)N[C@@H](CC(C)C)C(=O)N[C@@H](CC(=O)O)C(=O)N[C@H](C(N)=O)[C@@H](C)O` (Ac-Leu-Asp-Thr-NH2) the figure was 250 µM; with `CC(C)C[C@H](NC(=O)c1ccccc1)C(=O)N[C@@H](CC(=O)O)C(=O)N[C@H](C(N)=O)[C@@H](C)O` (HELM PEPTIDE1{[O=C(c1ccccc1)[*:2]].L.D.T.[am]}$$$$V2.0), 8.2 µM; with `CC(C)C[C@H](NC(=O)Nc1ccccc1)C(=O)N[C@@H](CC(=O)O)C(=O)N[C@H](C(N)=O)[C@@H](C)O` ({NHPh-CO}-Leu-Asp-Thr-NH2), above 25 µM.
